From PMC7932537, “Quantitative profiling of protease specificity” (PLoS Computational Biology, 2021)

How the values were obtained:
MMP-9 [1] = experiment: Substrate phage display with NGS: relative probability (RP) of P3-P1' tetramer clusters; type: biochemical, human; settings: for relative probability (RP) (acc.to MMP9): RP of matching tetramer of the cleavage site, unique part of MMP9 selectome
MMP-2 [2] = experiment: as above; type: biochemical, human; settings: for relative probability (RP) (acc.to MMP2): RP of matching tetramer of the cleavage site, unique part of MMP9 selectome
MMP-9 [3] = experiment: N-terminomic (TMT) analysis of MMP-treated HEK293 secretome: isotopic enrichment of novel N-termini; type: biochemical, human; settings: for isotopic enrichment (log2(ratio)): MMP9 cleavages in HEK293 cell proteins, determined by LC-MS/MS, log2(ratio) range (>3σ, 2σ-3σ, 1σ-2σ)
MMP-2 [4] = experiment: as above; type: biochemical, human
MMP-9 [5] = biological target: MMP-9 (Homo sapiens, UniProt P14780); experiment: kcat/KM of synthetic peptides derived from substrate phage selections; type: biochemical; set-up: The recombinant catalytic domains of MMP-2 and -9 were expressed in HEK293 cells; made in house; host or cells: HEK293 cells, stably transfected; purified from serum-free medium on Gelatin Sepharose 4B; settings: MMP9; 100 set of synthetic hexamer peptide substrates; mean, SD and SEM in columns of their own
Chain of MMP-9 (Homo sapiens, UniProt P14780) (P14780 94-444 limits assumed): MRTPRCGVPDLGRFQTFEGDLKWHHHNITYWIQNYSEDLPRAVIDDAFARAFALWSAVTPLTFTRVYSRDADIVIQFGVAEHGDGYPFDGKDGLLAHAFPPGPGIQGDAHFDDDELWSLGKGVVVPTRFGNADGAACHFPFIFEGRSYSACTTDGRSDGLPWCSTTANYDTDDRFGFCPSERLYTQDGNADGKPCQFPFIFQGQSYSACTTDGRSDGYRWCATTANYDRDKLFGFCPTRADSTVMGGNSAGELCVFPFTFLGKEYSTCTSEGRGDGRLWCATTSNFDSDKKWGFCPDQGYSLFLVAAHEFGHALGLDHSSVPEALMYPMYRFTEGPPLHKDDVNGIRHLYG
Description: (§1) K(obs) obtained for each of the 1369 substrates has a range of 0 and 12,792 (M^-1 s^-1) due to the experimental conditions used in the study. So, all substrates with the true K(obs) above this value will nevertheless have a K(obs) equal to the preset maximum. With this limitation in mind, we corroborated the results using synthetic peptides, thereby extending the correlation to the entire range of kcat/KM values for each MMP. We performed a correlation analysis using a set of 100 peptides with sequences derived from substrate phage selections and their kcat/KM values were experimentally determined as described in [27] (S8 Table).
(§2) The recombinant catalytic domains of MMP-2 and -9 were expressed in HEK293 cells stably transfected with respective constructs and purified from serum-free culture medium using Gelatin Sepharose 4B (GE Healthcare) as described in [29, 35]. Following activation with APMA (Sigma-Aldrich), the amount of active enzyme was determined by active site titration using GM6001 (Sigma-Aldrich). The kcat/KM values of 100 peptides derived from phage substrates […] were determined in triplicate as described in [27].
(§3) Supplementary file pcbi.1008101.s010.xlsx: S8 Table Table of 100 peptide set derived from substrate phage selections of MMP-2 and 9, for which kcat/KM values were experimentally determined. […]

MMP-2 [6] = biological target: T1, MMP-2 (Homo sapiens, UniProt P08253); experiment: as above; type: biochemical; settings: synthetic hexamer peptides; recombinant MMP-2 catalytic domain, APMA-activated; determined in triplicate as described in ref 27
T1 construct: The recombinant catalytic domains of MMP-2 and -9 were expressed in HEK293 cells; made in house; host or cells: HEK293 cells, stably transfected; purified from serum-free medium on Gelatin Sepharose 4B
T1 sequence (P08253 110-446 limits assumed): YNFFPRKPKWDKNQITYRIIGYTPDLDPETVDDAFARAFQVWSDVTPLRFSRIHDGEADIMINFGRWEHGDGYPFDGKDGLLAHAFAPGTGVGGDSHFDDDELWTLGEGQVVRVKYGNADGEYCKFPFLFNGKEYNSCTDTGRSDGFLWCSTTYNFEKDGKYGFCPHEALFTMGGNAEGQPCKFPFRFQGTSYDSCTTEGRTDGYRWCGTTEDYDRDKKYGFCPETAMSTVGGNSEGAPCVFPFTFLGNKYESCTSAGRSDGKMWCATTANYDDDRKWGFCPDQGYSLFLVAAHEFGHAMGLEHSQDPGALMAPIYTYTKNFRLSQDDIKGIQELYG
Description: as §1, §2, §3

[7] = HEK293 secretome, 750 nM MMP-9, 2 h, 37 C, TMT reporter ratio vs untreated control, LC-MS/MS, duplicate
[8] = HEK293 secretome, 750 nM MMP-2, 2 h, 37 C, TMT reporter ratio vs untreated control, LC-MS/MS, duplicate
[9] = MS detected cleavage sequence, HEK293 proteins, common MMP2-9 selectome

| Substance | relative probability (RP) (acc.to MMP9) (MMP-9 [1]) | relative probability (RP) (acc.to MMP2) (MMP-2 [2]) | isotopic enrichment (log2(ratio)) (acc.to MMP9) (MMP-9 [3]; [7]) | isotopic enrichment (log2(ratio)) (MMP-9 [3]) | isotopic enrichment (log2(ratio)) (acc.to MMP2) (MMP-2 [4]; [8]) | relative probability (RP) (MMP-9 [1]; MMP9, RP of the P3-P1' tetramer contained in the hexamer substrate (substrate phage display, NGS)) | relative probability (RP) (MMP-2 [2]; RP of the P3-P1' tetramer cluster contained in the hexamer, 200 nM MMP-2, 2 h, 37°C, two rounds of selection) | kcat/Km (MMP-9 [5]) [M⁻¹ s⁻¹] | kcat/Km (MMP-2 [6]) [M⁻¹ s⁻¹] | isotopic enrichment (log2(ratio)) (acc.to MMP9) (MMP-9 [3]; [9]) | isotopic enrichment (log2(ratio)) (acc.to MMP2) (MMP-2 [4]; [9]) |
| --- | --- | --- | --- | --- | --- | --- | --- | --- | --- | --- | --- |
| LPPDH-LNGVKL | 13.06 | 2.08 | 2.07 log2(ratio) | 2.07 | 1.257 log2(ratio) |  |  |  |  |  |  |
| KSIYY-ITGESK [MS detected cleavage site in Heat shock protein HSP 90-beta (P08238)] | 14.54 |  | 3.962 log2(ratio) | 3.962 | 0.3785 log2(ratio) |  |  |  |  |  |  |
| NHIRY-VISQGN [MS detected cleavage site in Fibrillin-2 (P35556)] | 10.4 | 0.96 | 3.134 log2(ratio) | 3.134 | 1.367 log2(ratio) |  |  |  |  |  |  |
| DRKPKA |  |  |  |  |  | 1.5839 | 0.3523 | 0 | 0 |  |  |
| GKPFK-IQVLVE [MS detected cleavage site in Galectin-3 (P17931)] | 34.84 | 1.13 | 1.459 log2(ratio) | 1.459 | 0.7991 log2(ratio) |  |  |  |  |  |  |
| FCPMA-AHEEIC [MS detected cleavage site in Fibronectin (P02751)] | 16.94 | 3.68 | 1.774 log2(ratio) | 1.774 | 0.5261 log2(ratio) |  |  |  |  |  |  |
| KHIYY-ITGETK [MS detected cleavage site in Heat shock protein HSP 90-alpha (P07900)] | 14.54 | 0.69 | 3.338 log2(ratio) | 3.338 | 0.7225 log2(ratio) |  |  |  |  |  |  |
| QQPFA-SVMTDE [MS detected cleavage site in Semaphorin-3D (O95025)] | 24.05 | 3.01 | 2.583 log2(ratio) | 2.583 | 0.2016 log2(ratio) |  |  |  |  |  |  |
| VVPWP-HVEGVE [MS detected cleavage site in N-acetylgalactosaminyltransferase 7 (Q86SF2)] | 15.08 | 0 | 3.516 log2(ratio) | 3.516 | 1.195 log2(ratio) |  |  |  |  |  |  |
| DSTMN-MLGGGG | 6.67 | 0 | 1.618 log2(ratio) | 1.618 | 0.8797 log2(ratio) |  |  |  |  |  |  |
| KPPRL-VGGPMD [MS detected cleavage site in Cystatin-C (P01034)] | 7.12 | 0.07 | 1.9855 log2(ratio) | 1.9855 | 0.8156 log2(ratio) |  |  |  |  |  |  |
| AGARG-IQGPQG |  |  |  | 1.521 |  |  |  |  |  | 1.521 log2(ratio) | 0.8156 log2(ratio) |
